US4283389A, “Novel antibiotic, BN-183B substance” (Meiji Seika Kaisha Ltd., priority 1978, dated 1981)

Assays:
[1] = test system: Herpes simplex virus type II 196; test: anti-Herpes virus activity in mice; format: in vivo
Herpes virus type II 196 = test: antiviral activity by tissue culture test; format: cell-based; conditions: dose 3.9 mcg/m
[2] = test system: Gram-positive and Gram-negative bacteria; test: growth inhibition of various microorganisms (overall); format: cell-based; conditions: overall result in words
Text: (§1) Table 1 below summarizes the minimum growth inhibitory concentrations of the BN-183B substance on various microorganisms.
(§2) The culture media used were a nutrient agar (a product of Difco).

LD50 in mice = format: in vivo
[3] = test system: DNA-type and RNA-type viruses; test: antiviral activity by tissue culture test (overall); format: cell-based; conditions: overall result in words
[4] = test system: Lymphocytic leukemia P-388; test: increase in life span of mice transplanted intraperitoneally with P-388; format: in vivo
Method: (§3) Lymphocytic leukemia P-388 or lymphoid leukemia L-1210 cells were transplanted intraperitoneally in an amount of 1×10^6 per mouse into CDF1 mice or BDF1 mice (about 5 weeks old, body weight 20±1 g), five in one group. Twenty-four hours after the transplantation of the tumor, a solution of the BN-183B substance in distilled water for injection was administered intraperitoneally to the mice once a day for three successive days. The percent increase in life span (i.e., ILS) was measured by comparing the average number of days of survival of each treated group with that of a control group to which the BN-183B substance was not administered.

[5] = test system: Infectious pancreatic necrosis (IPN) virus of rainbow trout; test: antiviral activity by tissue culture test; format: cell-based; conditions: dose 0.5 mcg/m
[6] = test system: Staphylococcus faecalis ATCC8043; test: minimum growth inhibitory concentration; format: cell-based; conditions: nutrient agar
Text: as §1, §2

[7] = test system: Escherichia coli NIHJ JC-2; test: minimum growth inhibitory concentration; format: cell-based; conditions: nutrient agar
Text: as §1, §2

[8] = test system: Escherichia coli K-12 IAM 1264; test: minimum growth inhibitory concentration; format: cell-based; conditions: nutrient agar
Text: as §1, §2

Proteus vulgaris OX19 = test: minimum growth inhibitory concentration; format: cell-based; conditions: nutrient agar
Text: as §1, §2

[9] = test system: Staphylococcus aureus Smith S-424; test: minimum growth inhibitory concentration; format: cell-based; conditions: nutrient agar
Text: as §1, §2

[10] = test system: Staphylococcus aureus 209P JC-1; test: minimum growth inhibitory concentration; format: cell-based; conditions: nutrient agar
Text: as §1, §2

[11] = test system: Staphylococcus epidermidis ATCC14990; test: minimum growth inhibitory concentration; format: cell-based; conditions: nutrient agar
Text: as §1, §2

Vaccinia virus Lister = format: cell-based; conditions: dose 3.9 mcg/m
[12] = test system: Infectious hematopoietic necrosis (IHN) virus of rainbow trout; test: antiviral activity by tissue culture test; format: cell-based; conditions: dose 0.5 mcg/m
lymphoid leukemia L-1210 = test: increase in life span of mice transplanted intraperitoneally with L-1210; format: in vivo
Method: as §3

[13] = test system: Newcastle disease virus Miyadera; format: cell-based; conditions: dose 3.9 mcg/m
Influenza virus A0/PR-8 = format: cell-based; conditions: dose 3.9 mcg/m
solubility = format: physicochemical; conditions: hydrochloride
[14] = test system: Bacillus subtilis ATCC 6633; test: paper disc method, inhibitory zone; format: cell-based; conditions: pure product, 20 to 500 mcg/ml
Method: In assaying the BN-183B substance, its anti-bacterial activity is utilized and Bacillus subtilis ATCC 6633 is used as an assaying strain. A mixture of 2% of mycin assay agar (a product of Kyoei Seiyaku K.K.) and 0.5% of bacto-agar (a product of Difco) is used as an assaying culture medium. When BN-183B substance (pure product) is assayed under the above conditions, the relation between the logarithm of the concentration within the range of 20 to 500 mcg/ml and the diameter of the inhibitory zone is linear, and an inhibitory zone having a diameter of 16 to 29 mm is given corresponding to the above concentration range (paper disc method).

O=c1[nH]c(=O)n([C@H]2C[C@H](O)[C@@H](CO)O2)cc1I [IUDR, 5-iodo-2'-deoxyuridine, reference compound]
ET50 (number of days of 50% survival) ([1]; 100 mg/kg i.p.): 8.50 days
Cumulative Mortality ([1]; 100 mg/kg i.p., day 5 from inoculation): 0%
Cumulative Mortality ([1]; 100 mg/kg i.p., day 6 from inoculation): 0%
Cumulative Mortality ([1]; 100 mg/kg i.p., day 7 from inoculation): 30%
Cumulative Mortality ([1]; 100 mg/kg i.p., day 8 from inoculation): 40%
Cumulative Mortality ([1]; 100 mg/kg i.p., day 9 from inoculation): 60%
Cumulative Mortality ([1]; 100 mg/kg i.p., day 10 from inoculation): 70%
Cumulative Mortality ([1]; 100 mg/kg i.p., day 11 from inoculation): 70%
Cumulative Mortality ([1]; 100 mg/kg i.p., day 12 from inoculation): 70%
Cumulative Mortality ([1]; 100 mg/kg i.p., day 13 from inoculation): 70%
Cumulative Mortality ([1]; 100 mg/kg i.p., day 14 from inoculation): 70%

C[C@H](N)C(=O)N[C@@H]1[C@H]2C(=C(O)C[C@@H](O)[C@@H]2O)C(=O)O[C@]1(C)C(Cl)Cl [BN-183B substance]
Difference of Log TCID50/ml from the Control (Herpes virus type II 196): 3.83 Log TCID50/ml
inhibitory activity on Gram-positive and Gram-negative bacteria [2]: strong inhibitory activity
LD50 (LD50 in mice; intramuscular): 4.1 mg/kg
LD50 (LD50 in mice; intraperitoneal): 4.3 mg/kg
LD50 (LD50 in mice; intravenous): 4.1 mg/kg
LD50 (LD50 in mice; oral): 50 mg/kg
LD50 (LD50 in mice; subcutaneous): 6.0 mg/kg
activity against DNA-type and RNA-type viruses [3]: very strong activity
Percent Increase in Life Span ([4]; P-388, 0.25 mg/kg i.p. once a day for three days): 32.1%
Percent Increase in Life Span ([4]; P-388, 0.5 mg/kg i.p. once a day for three days): 41.5%
Percent Increase in Life Span ([4]; P-388, 1 mg/kg i.p. once a day for three days): 54.7%
Percent Increase in Life Span ([4]; P-388, 2 mg/kg i.p. once a day for three days): 79.2%
Percent Increase in Life Span ([4]; P-388, 4 mg/kg i.p. once a day for three days): 66.0%
Difference of Log TCID50/ml from the Control [5]: 6.801 Log TCID50/ml
Minimum Growth Inhibitory Concentration [6]: 0.39 µg/mL
Minimum Growth Inhibitory Concentration [7]: 1.56 µg/mL
Minimum Growth Inhibitory Concentration [8]: 0.78 µg/mL
Minimum Growth Inhibitory Concentration (Proteus vulgaris OX19): 6.25 µg/mL
Minimum Growth Inhibitory Concentration [9]: 0.20 µg/mL
Minimum Growth Inhibitory Concentration [10]: 0.20 µg/mL
Minimum Growth Inhibitory Concentration [11]: 0.20 µg/mL
anti-Herpes virus effect compared with IUDR ([1]; 1.25 mg/kg BN-183B vs 100 mg/kg IUDR, i.p.): the same effect as in the group to which 100 mg/kg of IUDR was administered
ET50 (number of days of 50% survival) ([1]; 1.25 mg/kg i.p.): 8.38 days
Cumulative Mortality ([1]; 1.25 mg/kg i.p., day 5 from inoculation): 0%
Cumulative Mortality ([1]; 1.25 mg/kg i.p., day 6 from inoculation): 20%
Cumulative Mortality ([1]; 1.25 mg/kg i.p., day 7 from inoculation): 20%
Cumulative Mortality ([1]; 1.25 mg/kg i.p., day 8 from inoculation): 60%
Cumulative Mortality ([1]; 1.25 mg/kg i.p., day 9 from inoculation): 70%
Cumulative Mortality ([1]; 1.25 mg/kg i.p., day 10 from inoculation): 70%
Cumulative Mortality ([1]; 1.25 mg/kg i.p., day 11 from inoculation): 80%
Cumulative Mortality ([1]; 1.25 mg/kg i.p., day 12 from inoculation): 90%
Cumulative Mortality ([1]; 1.25 mg/kg i.p., day 13 from inoculation): 90%
Cumulative Mortality ([1]; 1.25 mg/kg i.p., day 14 from inoculation): 90%
ET50 (number of days of 50% survival) ([1]; 2.5 mg/kg i.p.): 7.65 days
Cumulative Mortality ([1]; 2.5 mg/kg i.p., day 5 from inoculation): 0%
Cumulative Mortality ([1]; 2.5 mg/kg i.p., day 6 from inoculation): 10%
Cumulative Mortality ([1]; 2.5 mg/kg i.p., day 7 from inoculation): 20%
Cumulative Mortality ([1]; 2.5 mg/kg i.p., day 8 from inoculation): 70%
Cumulative Mortality ([1]; 2.5 mg/kg i.p., day 9 from inoculation): 80%
Cumulative Mortality ([1]; 2.5 mg/kg i.p., day 10 from inoculation): 100%
Difference of Log TCID50/ml from the Control (Vaccinia virus Lister): < 3.00 Log TCID50/ml
Difference of Log TCID50/ml from the Control [12]: 3.000 Log TCID50/ml
Percent Increase in Life Span (lymphoid leukemia L-1210; L-1210, 0.25 mg/kg i.p. once a day for three days): 10.8%
Percent Increase in Life Span (lymphoid leukemia L-1210; L-1210, 0.5 mg/kg i.p. once a day for three days): 35.1%
Percent Increase in Life Span (lymphoid leukemia L-1210; L-1210, 1 mg/kg i.p. once a day for three days): 32.4%
Percent Increase in Life Span (lymphoid leukemia L-1210; L-1210, 2 mg/kg i.p. once a day for three days): 45.9%
Percent Increase in Life Span (lymphoid leukemia L-1210; L-1210, 4 mg/kg i.p. once a day for three days): 59.5%
Difference of Log TCID50/ml from the Control [13]: 6.00 Log TCID50/ml
Difference of Log TCID50/ml from the Control (Influenza virus A0/PR-8): 2.50
Solubility in acetone (solubility; acetone): scarcely soluble
Solubility in chloroform (solubility; chloroform): scarcely soluble
Solubility in ethyl acetate (solubility; ethyl acetate): scarcely soluble
Solubility in methanol (solubility; methanol): slightly soluble
Solubility in water (solubility; water): Very soluble
diameter of the inhibitory zone [14]: 16 to 29 mm
